# In ChEMBL document CHEMBL1926681, “Novel inhibitors of epidermal growth factor receptor: (4-(Arylamino)-7H-pyrrolo[2,3-d]pyrimidin-6-yl)(1H-indol-2-yl)methanones and (1H-indol-2-yl)(4-(phenylamino)thieno[2,3-d]pyrimidin-6-yl)methanones” (Bioorg Med Chem, 2012):
# Activity calls are given as the source filed them. The rule behind the calls is not given here.
# Columns and labels:
# [1] = Cytotoxicity against human MEXF 276L cells after 4 days by propidium iodide staining-based fluorometric analysis; type: functional, cell-based; conditions: MEXF276L, 96 h
# CAL-27 = experiment: Cytotoxicity against human CAL27 cells after 4 days by propidium iodide staining-based fluorometric analysis; type: functional, cell-based; conditions: CAL-27, 96 h
# [2] = Cytotoxicity against human MAXF 401NL cells after 4 days by propidium iodide staining-based fluorometric analysis; type: functional, cell-based; conditions: 96 h
# CWR22R = experiment: Cytotoxicity against human 22Rv1 cells after 4 days by propidium iodide staining-based fluorometric analysis; type: functional, cell-based; conditions: 22Rv1, 96 h
# PANC-1 = experiment: Cytotoxicity against human PANC1 cells after 4 days by propidium iodide staining-based fluorometric analysis; type: functional, cell-based; conditions: PANC-1, 96 h
# [3] = Cytotoxicity against human PAXF 1657L cells after 4 days by propidium iodide staining-based fluorometric analysis; type: functional, cell-based; conditions: 96 h
# [4] = Cytotoxicity against human LXFL 529L cells after 4 days by propidium iodide staining-based fluorometric analysis; type: functional, cell-based; conditions: 96 h
# DU-145 = experiment: Cytotoxicity against human DU145 cells after 4 days by propidium iodide staining-based fluorometric analysis; type: functional, cell-based; conditions: DU-145, 96 h
# [5] = Cytotoxicity against human PC3M cells after 4 days by propidium iodide staining-based fluorometric analysis; type: functional, cell-based; conditions: PC-3M, 96 h
# [6] = Cytotoxicity against human LXFA 289L cells after 4 days by propidium iodide staining-based fluorometric analysis; type: functional, cell-based; conditions: 96 h
# MKN-45 = experiment: Cytotoxicity against human MKN45 cells after 4 days by propidium iodide staining-based fluorometric analysis; type: functional, cell-based; conditions: MKN-45, 96 h
# NCI-H460 = experiment: Cytotoxicity against human H460 cells after 4 days by propidium iodide staining-based fluorometric analysis; type: functional, cell-based; conditions: NCI-H460, 96 h
# OVCAR-3 = experiment: Cytotoxicity against human OVCAR3 cells after 4 days by propidium iodide staining-based fluorometric analysis; type: functional, cell-based; conditions: OVCAR-3, 96 h
# [7] = Cytotoxicity against human PXF 1118L cells after 4 days by propidium iodide staining-based fluorometric analysis; type: functional, cell-based; conditions: 96 h
# [8] = Cytotoxicity against human DIFI cells after 4 days by propidium iodide staining-based fluorometric analysis; type: functional, cell-based; conditions: 96 h
# [9] = Cytotoxicity against human MEXF 462NL cells after 4 days by propidium iodide staining-based fluorometric analysis; type: functional, cell-based; conditions: 96 h
# HT-29 = experiment: Cytotoxicity against human HT-29 cells after 4 days by propidium iodide staining-based fluorometric analysis; type: functional, cell-based; conditions: HT-29, 96 h
# [10] = target: Hepatocyte growth factor receptor (Homo sapiens) (UniProt P08581); experiment: Inhibition of MET using poly(Ala, Glu, Lys, Tyr) as substrate and [gamma33P]ATP at 1 uM after 60 mins by scintillation counting
# Chain of Hepatocyte growth factor receptor (Homo sapiens) (P08581 whole entry): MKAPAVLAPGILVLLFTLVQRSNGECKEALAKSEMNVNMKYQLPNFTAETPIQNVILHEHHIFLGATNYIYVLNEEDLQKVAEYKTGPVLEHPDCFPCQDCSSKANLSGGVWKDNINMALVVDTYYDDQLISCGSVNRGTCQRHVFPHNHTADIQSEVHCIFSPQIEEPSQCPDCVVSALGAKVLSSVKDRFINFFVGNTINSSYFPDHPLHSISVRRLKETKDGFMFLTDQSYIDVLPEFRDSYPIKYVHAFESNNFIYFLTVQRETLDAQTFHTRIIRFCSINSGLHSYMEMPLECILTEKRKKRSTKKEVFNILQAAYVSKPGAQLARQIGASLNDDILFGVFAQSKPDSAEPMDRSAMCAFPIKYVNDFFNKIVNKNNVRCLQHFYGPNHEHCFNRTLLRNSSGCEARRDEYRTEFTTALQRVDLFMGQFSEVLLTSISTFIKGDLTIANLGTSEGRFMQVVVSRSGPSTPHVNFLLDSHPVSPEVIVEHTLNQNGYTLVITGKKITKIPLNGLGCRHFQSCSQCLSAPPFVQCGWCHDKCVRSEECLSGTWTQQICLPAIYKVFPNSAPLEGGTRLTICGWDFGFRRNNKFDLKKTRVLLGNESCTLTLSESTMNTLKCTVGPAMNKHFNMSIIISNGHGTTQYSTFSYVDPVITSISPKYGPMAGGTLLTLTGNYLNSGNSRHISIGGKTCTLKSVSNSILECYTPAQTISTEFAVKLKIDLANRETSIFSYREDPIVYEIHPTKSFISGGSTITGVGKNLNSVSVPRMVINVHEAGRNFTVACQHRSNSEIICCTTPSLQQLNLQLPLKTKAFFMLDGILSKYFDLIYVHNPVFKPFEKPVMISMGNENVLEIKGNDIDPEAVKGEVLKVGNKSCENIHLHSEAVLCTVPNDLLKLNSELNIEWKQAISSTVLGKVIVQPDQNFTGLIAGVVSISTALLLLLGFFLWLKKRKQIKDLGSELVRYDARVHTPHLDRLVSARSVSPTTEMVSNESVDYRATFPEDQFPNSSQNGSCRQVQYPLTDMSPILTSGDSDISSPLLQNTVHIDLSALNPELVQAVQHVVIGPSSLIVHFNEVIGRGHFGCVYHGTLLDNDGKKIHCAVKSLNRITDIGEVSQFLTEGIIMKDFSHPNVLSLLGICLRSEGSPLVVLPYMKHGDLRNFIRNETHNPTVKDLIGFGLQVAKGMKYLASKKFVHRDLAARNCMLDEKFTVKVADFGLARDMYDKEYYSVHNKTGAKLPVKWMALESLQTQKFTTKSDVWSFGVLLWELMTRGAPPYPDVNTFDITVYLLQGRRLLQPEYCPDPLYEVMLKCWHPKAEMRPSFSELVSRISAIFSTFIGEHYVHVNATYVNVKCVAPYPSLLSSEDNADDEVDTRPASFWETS
# [11] = Cytotoxicity against human PAXF 546L cells after 4 days by propidium iodide staining-based fluorometric analysis; type: functional, cell-based; conditions: 96 h
# [12] = Cytotoxicity against human GXF251L cells after 4 days by propidium iodide staining-based fluorometric analysis; type: functional, cell-based; conditions: GXF 251L, 96 h
# [13] = target: T1, Epidermal growth factor receptor (Homo sapiens, UniProt P00533); experiment: Inhibition of EGFR using poly(Glu,Tyr)4:1 as substrate and [gamma33P]ATP after 60 mins by scintillation counting
# T1 sequence (P00533 whole entry): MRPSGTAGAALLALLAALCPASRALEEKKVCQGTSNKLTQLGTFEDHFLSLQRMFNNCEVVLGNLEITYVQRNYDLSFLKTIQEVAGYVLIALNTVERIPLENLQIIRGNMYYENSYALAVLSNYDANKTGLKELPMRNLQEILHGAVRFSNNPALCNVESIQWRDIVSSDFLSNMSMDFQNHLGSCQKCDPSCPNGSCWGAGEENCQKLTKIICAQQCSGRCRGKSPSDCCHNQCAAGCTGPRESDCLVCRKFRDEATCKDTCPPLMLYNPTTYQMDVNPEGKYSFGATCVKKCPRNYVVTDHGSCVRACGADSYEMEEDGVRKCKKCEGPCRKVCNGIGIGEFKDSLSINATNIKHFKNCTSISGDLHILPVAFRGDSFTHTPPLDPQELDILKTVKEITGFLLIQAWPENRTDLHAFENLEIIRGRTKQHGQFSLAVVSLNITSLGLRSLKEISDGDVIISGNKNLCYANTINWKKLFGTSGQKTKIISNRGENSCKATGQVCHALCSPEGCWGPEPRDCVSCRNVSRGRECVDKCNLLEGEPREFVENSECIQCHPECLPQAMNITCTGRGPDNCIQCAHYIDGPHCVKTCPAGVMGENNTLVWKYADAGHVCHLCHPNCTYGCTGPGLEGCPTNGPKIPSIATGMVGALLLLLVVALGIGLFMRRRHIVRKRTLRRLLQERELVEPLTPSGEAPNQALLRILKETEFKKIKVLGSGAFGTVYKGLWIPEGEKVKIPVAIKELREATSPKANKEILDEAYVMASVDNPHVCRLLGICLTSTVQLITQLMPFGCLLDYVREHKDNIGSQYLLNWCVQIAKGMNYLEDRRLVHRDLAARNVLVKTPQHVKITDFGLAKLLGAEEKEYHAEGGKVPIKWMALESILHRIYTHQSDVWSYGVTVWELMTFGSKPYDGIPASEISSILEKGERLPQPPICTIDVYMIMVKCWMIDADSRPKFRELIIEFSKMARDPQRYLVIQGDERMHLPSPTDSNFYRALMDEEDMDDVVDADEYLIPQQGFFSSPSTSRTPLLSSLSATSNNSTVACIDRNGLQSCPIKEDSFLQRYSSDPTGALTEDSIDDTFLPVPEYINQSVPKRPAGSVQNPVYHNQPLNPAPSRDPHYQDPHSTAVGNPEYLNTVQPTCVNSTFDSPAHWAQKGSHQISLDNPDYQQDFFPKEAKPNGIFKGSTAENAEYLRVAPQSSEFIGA
# [14] = Cytotoxicity against human BXF T24 cells after 4 days by propidium iodide staining-based fluorometric analysis; type: functional, cell-based; conditions: T-24, 96 h
# [15] = Cytotoxicity against human MDA231 cells after 4 days by propidium iodide staining-based fluorometric analysis; type: functional, cell-based; conditions: MDA-MB-231, 96 h
# [16] = Cytotoxicity against human BXF 1352L cells after 4 days by propidium iodide staining-based fluorometric analysis; type: functional, cell-based; conditions: 96 h
# [17] = target: T1, Epidermal growth factor receptor; experiment: Inhibition of EGFR autophosphorylation in EGF-stimulated human A431 cells after 1 hr by immunoblotting; type: cell-based, A-431
# LNCaP = experiment: Cytotoxicity against human LNCAP cells after 4 days by propidium iodide staining-based fluorometric analysis; type: functional, cell-based; conditions: 96 h
# [18] = Cytotoxicity against human RXF 393NL cells after 4 days by propidium iodide staining-based fluorometric analysis; type: functional, cell-based; conditions: 96 h
# [19] = Cytotoxicity against human LIXF 575L cells after 4 days by propidium iodide staining-based fluorometric analysis; type: functional, cell-based; conditions: 96 h
# [20] = target: Tyrosine-protein kinase ABL1 (Homo sapiens) (UniProt P00519); experiment: Inhibition of ABL1 using poly(Ala, Glu, Lys, Tyr) as substrate and [gamma33P]ATP at 1 uM after 60 mins by scintillation counting
# Chain of Tyrosine-protein kinase ABL1 (Homo sapiens) (P00519 whole entry): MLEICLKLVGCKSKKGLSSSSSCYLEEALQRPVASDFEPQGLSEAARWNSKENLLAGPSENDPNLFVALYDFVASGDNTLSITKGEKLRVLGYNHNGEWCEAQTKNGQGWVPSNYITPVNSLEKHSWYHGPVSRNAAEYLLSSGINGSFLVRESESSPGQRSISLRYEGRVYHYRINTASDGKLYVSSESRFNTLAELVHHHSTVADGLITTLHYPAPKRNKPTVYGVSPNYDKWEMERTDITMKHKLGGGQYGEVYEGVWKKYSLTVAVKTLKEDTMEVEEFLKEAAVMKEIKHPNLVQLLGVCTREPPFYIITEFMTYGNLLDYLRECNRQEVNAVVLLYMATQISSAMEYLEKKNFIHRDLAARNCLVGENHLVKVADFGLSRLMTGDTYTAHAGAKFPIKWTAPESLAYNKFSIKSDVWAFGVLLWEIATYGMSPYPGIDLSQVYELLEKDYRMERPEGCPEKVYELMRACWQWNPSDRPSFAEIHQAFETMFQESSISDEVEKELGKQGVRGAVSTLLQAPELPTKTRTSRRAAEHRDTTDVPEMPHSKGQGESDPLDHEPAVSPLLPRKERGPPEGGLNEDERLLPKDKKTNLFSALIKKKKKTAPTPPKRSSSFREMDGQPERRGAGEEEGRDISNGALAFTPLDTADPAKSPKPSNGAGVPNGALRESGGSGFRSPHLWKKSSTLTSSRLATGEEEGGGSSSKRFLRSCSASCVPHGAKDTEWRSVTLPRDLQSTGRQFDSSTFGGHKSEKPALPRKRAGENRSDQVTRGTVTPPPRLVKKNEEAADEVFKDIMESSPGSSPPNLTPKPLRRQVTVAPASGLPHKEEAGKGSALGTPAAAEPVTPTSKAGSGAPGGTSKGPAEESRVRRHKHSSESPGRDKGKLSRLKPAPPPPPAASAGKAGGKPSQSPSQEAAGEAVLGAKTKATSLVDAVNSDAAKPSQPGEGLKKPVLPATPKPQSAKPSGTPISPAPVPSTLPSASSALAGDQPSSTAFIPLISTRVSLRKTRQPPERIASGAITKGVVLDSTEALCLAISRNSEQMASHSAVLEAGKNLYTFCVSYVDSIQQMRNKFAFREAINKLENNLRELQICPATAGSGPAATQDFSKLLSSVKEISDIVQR
# [21] = Cytotoxicity against human PXF 1752L cells after 4 days by propidium iodide staining-based fluorometric analysis; type: functional, cell-based; conditions: 96 h
# [22] = Cytotoxicity against human RXF 486L cells after 4 days by propidium iodide staining-based fluorometric analysis; type: functional, cell-based; conditions: 96 h
# MCF7 = experiment: Cytotoxicity against human MCF7 cells after 4 days by propidium iodide staining-based fluorometric analysis; type: functional, cell-based; conditions: MCF7, 96 h
# [23] = Cytotoxicity against human UXF 1138L cells after 4 days by propidium iodide staining-based fluorometric analysis; type: functional, cell-based; conditions: 96 h
# [24] = Cytotoxicity against human CXF 269L cells after 4 days by propidium iodide staining-based fluorometric analysis; type: functional, cell-based; conditions: 96 h
# [25] = Cytotoxicity against human PXF 698L cells after 4 days by propidium iodide staining-based fluorometric analysis; type: functional, cell-based; conditions: 96 h
# TE-671 = experiment: Cytotoxicity against human TE671 cells after 4 days by propidium iodide staining-based fluorometric analysis; type: functional, cell-based; conditions: TE-671, 96 h
# HCT-116 = experiment: Cytotoxicity against human HCT116 cells after 4 days by propidium iodide staining-based fluorometric analysis; type: functional, cell-based; conditions: HCT-116, 96 h
# [26] = Cytotoxicity against human OVXF 899L cells after 4 days by propidium iodide staining-based fluorometric analysis; type: functional, cell-based; conditions: 96 h
# [27] = Cytotoxicity against human BXF 1218L cells after 4 days by propidium iodide staining-based fluorometric analysis; type: functional, cell-based; conditions: 96 h
# [28] = Cytotoxicity against human MEXF 1341L cells after 4 days by propidium iodide staining-based fluorometric analysis; type: functional, cell-based; conditions: 96 h
# [29] = Cytotoxicity against human LXFA 629L cells after 4 days by propidium iodide staining-based fluorometric analysis; type: functional, cell-based; conditions: 96 h
# SAOS-2 = experiment: Cytotoxicity against human Saos2 cells after 4 days by propidium iodide staining-based fluorometric analysis; type: functional, cell-based; conditions: SAOS-2, 96 h, read-out: IC50
# [30] = Cytotoxicity against human LXFL 1121L cells after 4 days by propidium iodide staining-based fluorometric analysis; type: functional, cell-based; conditions: 96 h
# [31] = Cytotoxicity against human LXFA 526L cells after 4 days by propidium iodide staining-based fluorometric analysis; type: functional, cell-based; conditions: 96 h
# [32] = target: T1, Epidermal growth factor receptor; experiment: Inhibition of EGFR using poly(Glu,Tyr)4:1 as substrate and [gamma33P]ATP at 1 uM after 60 mins by scintillation counting
# RKO = experiment: Cytotoxicity against human RKO cells after 4 days by propidium iodide staining-based fluorometric analysis; type: functional, cell-based; conditions: 96 h
# [33] = target: Receptor tyrosine-protein kinase erbB-2 (Homo sapiens) (UniProt P04626); experiment: Inhibition of Erbb2 using poly(Glu,Tyr)4:1 as substrate and [gamma33P]ATP at 1 uM after 60 mins by scintillation counting
# Chain of Receptor tyrosine-protein kinase erbB-2 (Homo sapiens) (P04626 whole entry): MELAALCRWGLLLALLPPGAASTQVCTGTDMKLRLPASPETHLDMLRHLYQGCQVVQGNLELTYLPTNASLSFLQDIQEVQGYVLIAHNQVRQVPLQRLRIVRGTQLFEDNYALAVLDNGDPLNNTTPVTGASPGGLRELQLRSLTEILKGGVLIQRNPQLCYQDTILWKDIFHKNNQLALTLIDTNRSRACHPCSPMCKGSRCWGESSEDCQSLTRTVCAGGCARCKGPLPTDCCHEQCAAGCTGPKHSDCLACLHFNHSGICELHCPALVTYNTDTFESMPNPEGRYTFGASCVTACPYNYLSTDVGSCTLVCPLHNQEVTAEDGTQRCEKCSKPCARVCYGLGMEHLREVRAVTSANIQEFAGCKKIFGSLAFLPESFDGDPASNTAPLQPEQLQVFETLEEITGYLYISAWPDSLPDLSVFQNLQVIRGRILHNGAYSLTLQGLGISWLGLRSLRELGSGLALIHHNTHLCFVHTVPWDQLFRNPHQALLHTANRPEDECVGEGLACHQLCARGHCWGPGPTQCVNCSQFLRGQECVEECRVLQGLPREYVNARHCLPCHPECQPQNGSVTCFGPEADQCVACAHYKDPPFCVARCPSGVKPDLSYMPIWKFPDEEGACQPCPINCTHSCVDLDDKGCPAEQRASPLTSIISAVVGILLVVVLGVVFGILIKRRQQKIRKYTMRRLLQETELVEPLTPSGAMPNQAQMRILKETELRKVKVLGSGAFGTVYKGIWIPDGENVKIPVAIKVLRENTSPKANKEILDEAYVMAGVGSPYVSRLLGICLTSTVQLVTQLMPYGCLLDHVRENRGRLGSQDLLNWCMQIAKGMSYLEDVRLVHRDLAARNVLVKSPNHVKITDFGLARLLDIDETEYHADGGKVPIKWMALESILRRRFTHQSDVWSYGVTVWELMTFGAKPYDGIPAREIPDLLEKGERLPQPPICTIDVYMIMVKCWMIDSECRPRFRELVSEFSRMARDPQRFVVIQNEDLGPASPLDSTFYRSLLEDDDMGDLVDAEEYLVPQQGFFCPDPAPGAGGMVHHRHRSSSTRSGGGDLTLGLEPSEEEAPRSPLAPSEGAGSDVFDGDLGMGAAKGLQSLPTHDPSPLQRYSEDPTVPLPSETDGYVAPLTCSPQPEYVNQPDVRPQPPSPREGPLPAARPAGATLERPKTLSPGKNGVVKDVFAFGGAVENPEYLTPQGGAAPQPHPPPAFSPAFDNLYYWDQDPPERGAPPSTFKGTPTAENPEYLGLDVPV
# [34] = Cytotoxicity against human RXF 1781L cells after 4 days by propidium iodide staining-based fluorometric analysis; type: functional, cell-based; conditions: 96 h
# [35] = target: Vascular endothelial growth factor receptor 2 (Homo sapiens) (UniProt P35968); experiment: Inhibition of VEGFR2 using poly(Glu,Tyr)4:1 as substrate and [gamma33P]ATP at 1 uM after 60 mins by scintillation counting
structure (smiles),measurement,setting,value
O=C(c1cc2ccccc2[nH]1)c1cc2c(Nc3cccc(Cl)c3)ncnc2s1,IC50,[1],27.1 µM
same,IC50,CAL-27,3 µM
same,IC50,[2],7.3 µM
same,IC50,CWR22R,14 µM
same,IC50,PANC-1,14.8 µM
same,IC50,[3],47.6 µM
same,IC50,[4],7.6 µM
same,IC50,DU-145,9.2 µM
same,IC50,[5],14.1 µM
same,IC50,[6],4.7 µM
same,IC50,MKN-45,20.2 µM
same,IC50,NCI-H460,17.7 µM
same,IC50,OVCAR-3,15.3 µM
same,IC50,[7],49.7 µM
same,IC50,[8],1.8 µM
same,IC50,[9],24 µM
same,IC50,HT-29,17.7 µM
same,inhibition,[10],inactive
same,IC50,[11],25.1 µM
same,IC50,[12],4.3 µM
same,IC50,[13],0.0166 µM
same,IC50,[14],23.7 µM
same,IC50,[15],23.4 µM
same,IC50,[16],15.9 µM
same,IC50,[17],0.3 µM
same,IC50,LNCaP,11.3 µM
same,IC50,[18],26.4 µM
same,IC50,[19],18.1 µM
same,inhibition,[20],inactive
same,IC50,[21],30.7 µM
same,IC50,[22],13.1 µM
same,IC50,MCF7,12.5 µM
same,IC50,[23],8.6 µM
same,IC50,[24],28.9 µM
same,IC50,[25],31 µM
same,IC50,TE-671,24.8 µM
same,IC50,HCT-116,18.9 µM
same,IC50,[26],13.9 µM
same,IC50,[27],21.5 µM
same,IC50,[28],20.1 µM
same,IC50,[29],6 µM
same,IC50,SAOS-2,19.3 µM
same,IC50,[30],16 µM
same,IC50,[31],13.6 µM
same,inhibition,[32],99%
same,IC50,RKO,18.1 µM
same,inhibition,[33],73%
same,IC50,[34],20 µM
same,inhibition,[35],20%
